Assay results taken from US8263655B2, “Methods for treatment of renal failure” (Technion Research and Development Foundation Ltd, priority 2005, dated 2012).

Experiments:
rats with CHF = experiment: Chronic administration to rats with experimental congestive heart failure (aortocaval fistula), renal excretory parameters; type: in vivo, Sprague Dawley rats; conditions: for diuretic and natriuretic responses in rats with congestive heart failure: summary statement
Experimental: (§1) (ii) Animals. Studies were conducted on Sprague Dawley rats (Harlan Laboratories Ltd., Jerusalem, Israel), weighing 290˜330 g. The animals were kept in a temperature-controlled room, and were fed standard rat chow containing 0.5% NaCl and tap water ad libitum. All experiments were performed according to the guidelines of the Technion Committee for Supervision of Animal Experiments (Haifa, Israel). Rats were subjected to one of the experimental protocols, described in Examples 1 and 2 hereinafter.
(§2) (iii) Chemical analysis. Sodium concentration in plasma and urine was determined by flame photometry (model IL 943, Instrumentation Laboratory). Inulin and creatinine concentrations were determined by the colorimetric anthrone method. Glomerular filtration rate (GFR) was equated with the clearance of inulin or creatinine.
Following surgery, the rats were allowed to recover and housed in individual metabolic cages for measurements of daily urine volume and urinary sodium/potassium excretion.
Rasagiline or S-(−)-N-propargyl-1-aminoindan were dissolved in drinking water and given orally at a dose of 1 or 7.5 mg/kg/day for 5 days to normal rats. Following this period, the animals were subjected either to sham operation (n=6) or to creation of aortocaval fistula (ACF) (n=6) as described above. These experimental groups were treated daily by gavage with 1 or 7.5 mg/kg of rasagiline or S-(−)-N-propargyl-1-aminoindan for additional 14 days, and their daily urine volume, sodium and potassium excretion were measured. Rats treated with vehicle (water) served as controls. After completion of the treatment period, animals from the different experimental groups were killed by decapitation and their blood was collected in pre-cooled tubes. Rats with sham operation or animals with arterio-venous fistula treated with vehicle served as controls.

rats with renal ischemia = experiment: Rat renal ischemia-reperfusion injury (IRI) model of acute renal failure, renal clearance study; type: in vivo, Sprague Dawley rats; conditions: for diuretic and natriuretic responses and GFR in the ischemic kidney: summary statement
Experimental: as §1, §2
For this purpose, the effects of either rasagiline or S-(−)-N-propargyl-1-aminoindan on renal clearance parameters, i.e., glomerular filtration rate (GFR), absolute and fractional sodium excretion rates (UNaV and FENa, respectively), and urinary flow (V) were studied in rats that underwent renal ischemia. Rats that underwent the same procedure, but were treated with vehicle, served as controls.
The surgical procedure for the induction of renal ischemia has been previously described (Sela et al., 1992). Briefly, the animals were anesthetized with Inactin (100 mg/kg, i.p.), placed on a thermo-regulated (37° C.) surgical table and prepared for hemodynamic and clearance studies (Brodsky et al., 1998). After tracheotomy, polyethylene tubes (PE50) were inserted into the carotid artery, jugular vein and urinary bladder for blood pressure monitoring, infusion of various solutions and urine collections, respectively. A solution of 2% inulin in 0.9% saline was infused throughout the experiment at a rate of 1.0% of body weight per hour. […] Then, the left kidney was exposed and the renal artery was clamped for forty-five minutes of ischemia, followed by 60 min of reperfusion. The right kidney served as the control, for each animal. Thirty minutes prior to the induction of the renal ischemia, animals were treated with either rasagiline or S-(−)-N-propargyl-1-aminoindan administered as a bolus injection (1.0 mg/kg, I.V.), followed by a sustained infusion of the drugs at a dose of 2 mg/kg/h throughout the whole experiment. Animals treated with saline served as controls. Then, two additional clearance periods were obtained under the influence of the drug. Urine volume was determined gravimetrically. Blood samples were obtained in the midst of every 2nd clearance period.

C#CCN[C@H]1CCc2ccccc21 [S-(−)-N-propargyl-1-aminoindan]
GFR (creatinine clearance test) (rats with CHF; rats with CHF, 1 or 7.5 mg/kg/day by gavage for 2 weeks, FIG. 6): enhanced GFR
urinary flow rate (daily urine volume) (rats with CHF; rats with CHF, 1 or 7.5 mg/kg/day orally, 14 days after fistula, FIGS. 3A-3B): increased the urinary flow rate
absolute (daily) urinary sodium excretion (rats with CHF; rats with CHF, 1 or 7.5 mg/kg/day orally, 14 days, FIG. 4): markedly enhanced
cumulative urinary sodium excretion (rats with CHF; rats with CHF, 1 or 7.5 mg/kg/day orally, 14 days, FIG. 5): markedly enhanced
diuretic and natriuretic responses in rats with congestive heart failure (rats with CHF): significant diuretic and natriuretic responses
glomerular filtration rate (GFR), function of the ischemic kidney (rats with renal ischemia; ischemic (left) kidney, 1.0 mg/kg I.V. bolus 30 min prior to ischemia, then 2 mg/kg/h infusion, 45 min ischemia, 60 min reperfusion, FIG. 1B): improved the function of the ischemic kidney
fractional excretion of Na+ (FENa) by ischemic kidney (rats with renal ischemia; ischemic kidney, 1.0 mg/kg I.V. bolus, then 2 mg/kg/h infusion, FIG. 2B): enhanced FENa by ischemic kidney more than rasagiline
fractional excretion of Na+ (FENa) by normal kidney (rats with renal ischemia; normal kidney, 1.0 mg/kg I.V. bolus, then 2 mg/kg/h infusion, FIG. 2A): increased the fractional excretion of Na^+ (FENa) by normal kidney
diuretic and natriuretic responses and GFR in the ischemic kidney (rats with renal ischemia; ischemic kidney): diuretic and natriuretic responses accompanied by improved GFR

C#CCN[C@@H]1CCc2ccccc21 [rasagiline, R(+)-N-propargyl-1-aminoindan, reference compound]
diuretic and natriuretic responses in rats with congestive heart failure (rats with CHF): significant diuretic and natriuretic responses
diuretic and natriuretic responses and GFR in the ischemic kidney (rats with renal ischemia; ischemic kidney): diuretic and natriuretic responses accompanied by improved GFR
